Test results: US20060210584A1, “Method for preparing citrinin-free Monascus biomass and use of citrinin-free Monascus biomass” (priority 2005, published 2006)

Experiments:
[1] = tested on: microsomal lipid peroxidation; assay: Inhibition of microsomal lipid peroxidation (MDA-TBA); type: biochemical; details: rat liver microsomes, 10 μM FeSO4 and 0.1 mM ascorbic acid, 37° C. 60 min; aqueous extract
Procedure: (§1) A freeze-dried sample of Example 1 was weighed and made up to 100 mg/mL in distilled water. The solution was autoclaved at 121° C. for 15 min. The supernatant was harvested after centrifugation at 4° C. was stored at −20° C. A serial dilution was then made with the stock aqueous extract into a series of increasing concentrations of the extracts up to 100 mg/mL solution. For the assay of the scavenging of DPPH radicals, a methanolic extract (membrane-filtered; 0.45 μm membrane, Acrodisc 4CR, PTEE) (replacing the solvent water with methanol and procedure stated in the first sentence) was used instead.
Normal rats were sacrificed by cervical dislocation. The liver of the rats was rapidly homogenized in 0.25M of an ice-cold sucrose solution and the resultant solution was centrifuged at 12,000×g for 20 min at 4° C. The supernatant obtained was centrifuged at 15,000×g for 60 min at 4° C. […]
The microsomes (200-300 μg/mL) were incubated at 37° C. for 60 min with the extract sample of Monascus biomass at variable concentrations, 10 μM FeSO4 and 0.1 mM ascorbic acid in 1.0 mL of a phosphate buffered saline (PBS, 0.25M, pH7.4). […] After centrifugation of precipitated protein, the color reaction of MDA-TBA complex was detected at OD 532 nm. […]
where A was the absorbance (OD532) of the negative control, and A1 was that of the tested sample.

[2] = Scavenging of superoxide radicals (PMS-NADH/NBT); type: biochemical; details: PMS-NADH system, NBT, OD 560 nm; aqueous extract
Procedure: as §1
Superoxide radicals were generated in a PMS-NADH [phenazin methosulfate (PMS)-β-nicotinamide adenine dinucleotide (reduced from, NADH)] system by oxidation of NADH and assayed by the reduction of nitroblue tetrazolium (NBT). The superoxide radicals were generated in 3 mL of Tris-HCl buffer (16 mM, pH8.0), which contained 78 μM NADH, 50 μM NBT, 10 μM PMS and Monascus extracts at different concentrations to be tested. The color reaction between superoxide radicals and NBT was detected at OD 560 nm. L-ascorbic acid was used as a positive control. The inhibition rate (%) was calculated using the following formula: Inhibition rate (%)=(A−A1)/A×100%
where A was the absorbance of a negative control (distilled water), and A1 was the absorbance of the tested sample.

[3] = Reducing power (potassium ferricyanide); type: biochemical; details: absorbance 700 nm
Procedure: as §1
2.5 mL of 1% potassium ferricyanide [K3Fe(CN)6] was added to 1.0 mL of an aqueous Monascus extract of variable concentrations (prepared as stated above). The resultant mixture was incubated at 50° C. for 20 min. 2.5 mL of trichloracetic acid (TCA, 10%) were added to the mixture. 2.5 mL of the resultant solution were mixed with 2.5 mL of distilled water and 0.5 mL of FeCl3 solution (0.1%). The absorbance was measured at 700 nm. Increased absorbance of the reaction mixture indicated an increase of reducing power. Vitamin C was used as a positive control in this experiment.

mouse = details: cited from earlier work
[4] = Scavenging of DPPH radicals; type: biochemical; details: methanolic extract; absorbance 515 nm, 30 s
Procedure: as §1
1.8 mL of a methanolic solution of DPPH (6×10^−5M 2,2-diphenyl-1-picrylhydrazyl) was added to 0.2 mL of a methanolic Monascus extract of variable concentrations (prepared as described above). The absorbance of the reaction mixture was measured at 515 nm exactly 30s after the DPPH solution was added. Vitamin E and methanol were used as positive and negative controls, respectively.
The inhibition rate (%) was calculated using the following formula: Inhibition rate (%)=(A−A1)/A×100%
where A was the absorbance of the negative control, and A1 was that of the tested sample.

O=C1O[C@H]([C@@H](O)CO)C(O)=C1O [Vitamin C, L-ascorbic acid]
effective concentration giving 50% inhibition of microsomal lipid peroxidation [1]: 0.1 mg/mL
effective concentration giving 50% inhibition, scavenging of superoxide radicals [2]: 1.5 mg/mL
reducing power, concentration range of action [3]: less than 1 mg/mL

CC1=C2C(=CO[C@H](C)[C@H]2C)C(O)=C(C(=O)O)C1=O [citrinin]
LD50 (lethal dose causing decrease of 50% population) (mouse): 35 mg/kg

Vitamin E
effective concentration to give 50% inhibition, scavenging of DPPH radicals [4]: 1 mg/mL
